Measurements published in a melting point compilation (Tetko et al.; mined from patent text by program, amines drawn as free bases though some values may be those of a salt).

CCOC(=O)c1cc2cc(NC(=O)OCc3ccccc3)ccc2nn1 gave a melting point of 205 °C. CN1C(=O)NC(=O)C1O (configuration not stated) showed a melting point of 135 to 136 °C. Molecule CC(=O)Nc1nc2ccnc(-c3cccc(NS(=O)(=O)c4ccc(C)cc4)c3)n2n1 has a melting point of 208 to 211 °C. Molecule CCN(CC)c1ccc(Nc2ncc3ccc(=O)n(CC)c3n2)cc1 has a melting point of 108 to 109 °C. Cc1ncc2c(c1OCC(=O)O)COC2c1ccccc1 (configuration not stated) gave a melting point of 220 °C. Work on O=C(Nc1ccccc1O)c1ccc(CSc2ccc(O)cc2)cc1 yielded a melting point of 152 to 156 °C. With O=C(C=Cc1ccc(C(F)(F)F)cc1)N1CCc2c([nH]c3ccccc23)C1c1ccc2c(c1)OCO2 (configuration not stated) the melting point was 233 °C. With O=C(NC12CC3CC(CC(C3)C1)C2)OCCc1cccs1 the melting point was 67 to 69 °C. With O=c1c2c[nH]cc(-c3ccccc3)c-2nn1-c1ccccc1 the melting point was 280 to 285 °C. O=[N+]([O-])c1ccc(SCc2c[nH]cn2)nc1 gave a melting point of 155 to 156 °C. In the case of C=CCN1C(=O)C2CCc3c(ccc(OC)c3OC)C2C1=O (configuration not stated), the melting point was 147 to 148 °C. COc1ccc2nc(-n3ccnc3)nc(NCCSC)c2c1 showed a melting point of 168 to 178 °C. With C[C@@H](N1CCN(S(=O)(=O)c2ccc([N+](=O)[O-])cc2)CC1)[C@](O)(Cn1cncn1)c1ccc(F)cc1F the melting point was 160 to 162 °C. Cc1c([N+](=O)[O-])cnc(Oc2ccc(Cl)c(C(F)(F)F)c2)c1Br showed a melting point of 73 to 74 °C. CCOC(=O)c1nc(SC)[nH]c(=O)c1OCc1ccccc1 gave a melting point of 109 to 110 °C. With CCCCCCCCCCCCCCCCSCC(CNS(=O)(=O)CCCI)n1nnc(C)n1 (configuration not stated) the melting point was 50 to 51 °C. In the case of ClCc1cncc(-c2ccccc2)c1, the melting point was 75 to 76 °C. CC(=O)NC(CSC(=O)c1ccccc1OC(C)=O)C(=O)O (configuration not stated) showed a melting point of 120 to 122 °C. With COc1ccc(CN2Cc3c(-c4nc(C5CC5)no4)ncn3-c3ccc(OC)cc3C2=O)c(OC)c1 the melting point was > 240 °C. OCc1cn2c(n1)CN=C(c1ccccc1)c1cc(C(F)(F)F)ccc1-2 showed a melting point of 193 to 194 °C. In the case of Cc1ccc2c(c1)C=Cn1c(nnc1S(C)=O)C2 (configuration not stated), the melting point was 158 to 159 °C. In the case of CC(=O)c1c(C)nc(C)c(C(=O)OCCC#N)c1-c1cccc([N+](=O)[O-])c1, the melting point was 85 °C. Work on Cc1ccc(N)cc1Nc1nccc(-c2cccnc2)n1 yielded a melting point of 138 to 140 °C. CCCCCCCCNC(=O)OC1CCN(C(=O)Oc2ccc(Oc3ccccc3)cc2)CC1 showed a melting point of 73 to 75 °C. Molecule O=C(Nc1ccc(-c2ccc(C(=O)N3CCN4CCC3CC4)o2)cc1)c1ccccc1 has a melting point of 254 °C. With ON=C(Nc1ccc(C(F)(F)F)cc1)C1=NN(c2ccc(Cl)cc2)C(c2ccc(F)cc2)C1 (configuration not stated) the melting point was 188 to 191 °C. Molecule Cc1c(-c2ccccc2)c(N2CC[C@H](N(C)C)C2)c2oc(/C=C/c3ccccc3)nc2c1C#N has a melting point of 165 to 166 °C. In the case of CCOC(=O)C(O)=Cc1nccc(OCc2ccccc2)n1, the melting point was 124 to 126 °C. With CCCCCCCCCCCCCCCCC(O)CNCCO (configuration not stated) the melting point was 84.5 to 86 °C. For COc1ccc(OC)c(OCCO)c1, the melting point was 50 to 52 °C. Work on O=C(CF)NCc1ccc2ccn(C3CCN(CCc4ccc(F)cc4)CC3)c2c1 yielded a melting point of 106 to 108 °C. For O=C1Nc2ccc(F)cc2C(=O)N2CC[C@@H]12, the melting point was 216 to 217 °C. CS(=O)(=O)c1ccc(Oc2cc(OCc3cccc(Cl)n3)c3[nH]c(C4=NCC(CCO)S4)cc3c2)cc1 (configuration not stated) showed a melting point of 93 to 94 °C. Molecule COc1ccc2c(c1O)C(=O)CC(c1ccc(F)cc1)=N2 has a melting point of 60 to 62 °C. COC(=O)NCc1ccc2ccn(C3CCN(CCc4ccc(F)cc4)CC3)c2c1 gave a melting point of 117 to 118 °C. In the case of CC1(C)Cc2c(Cl)cccc2C=[N+]1[O-], the melting point was 104 to 106 °C. For O=C(CCl)Nc1nc(Cl)c(-c2ccccc2)s1, the melting point was 215 to 216 °C. O=C(O)c1nc(-c2ccc(Cl)cc2Cl)n(-c2ccc(Cl)cc2)c1Br gave a melting point of 205 to 207 °C. For Cc1cc(COC2CCCCO2)nc(N)n1 (configuration not stated), the melting point was 109 to 110 °C. Work on CCOC(=O)c1cn(Cc2ccccc2)nc1N(Cc1ccccc1)C(=O)Nc1ccccc1 yielded a melting point of 116 to 117 °C. With C=CCC(C(=O)O)c1ccccc1 (configuration not stated) the melting point was 34 °C. Molecule COc1ccc2[nH]c(C(C)C)c(/C=C/C(=O)c3ccncc3)c2c1 has a melting point of 252 to 253 °C. Nc1sc2c(c1C(=O)c1ccc(Cl)cc1)CCN(CCc1ccccc1)C2 showed a melting point of 148 to 150 °C. With CCCc1nc2c(N)nc3ccc(-c4cccc(CO)c4)cc3c2s1 the melting point was 176 to 177 °C. Work on CC(=O)NC[C@H]1CN(c2ccc(N3CCC4(CC3)OCCO4)cc2)C(=O)O1 yielded a melting point of 140 to 142 °C. With O=C(CN1CCC(Cc2ccccc2)CC1)Nc1cccc(NCc2ccccc2)c1 the melting point was 112 to 114 °C. For CC(CCc1ccc(F)cc1)(Cn1ccnc1)Sc1cc(Cl)ccc1Cl (configuration not stated), the melting point was 148 °C. O=C(Nc1cccc(F)n1)c1cc(-c2ccc(Cl)c(Cl)c2)nc2ccccc12 showed a melting point of 204 to 206 °C. With O=[N+]([O-])c1cc2nc(O)c(O)nc2c2[nH]nnc12 the melting point was > 300 °C. With CC12CCC3C(CC(Cl)C4(O)CC=CCC34C)C1CC=C2Br (configuration not stated) the melting point was 125 to 126 °C. Cc1ccc2c(=O)[nH]c(N3CCN(C)CC3)cc2c1 gave a melting point of 242 to 243 °C. For CC(CCC(=O)C(C)(C)O)C1CCC2C3CC(O)C4CC(O)CCC4(C)C3CCC12C (configuration not stated), the melting point was 189 to 191 °C. CC(C)(C)OC(=O)c1cccc(-c2ccc([N+](=O)[O-])cc2)c1 showed a melting point of 110 to 111 °C. For CC(/C=C/c1c(C)oc(C)c1C)=C\C=C\C(C)=C\C(=O)O, the melting point was 213 to 214 °C. With COC(=O)C(C)=Cc1ccc(O)cc1 the melting point was 103 to 104 °C. For Cc1c(C)c2c(c(C)c1N)CC(C)(CN(C)C)O2 (configuration not stated), the melting point was 66 to 67 °C. For COC(=O)c1ccc2cc(O)ccc2c1, the melting point was 196 °C. For NC(=O)C(Sc1ccccc1)c1cccc(C(=O)c2ccc(Cl)cc2)c1N (configuration not stated), the melting point was 189 to 191 °C. With CC(NC(=O)C(F)(F)F)C(=O)O (configuration not stated) the melting point was 68 °C. Cc1ncc2c(n1)N(CC(O)CO)C(=O)CO2 (configuration not stated) showed a melting point of 70 to 72 °C. In the case of CCn1c(COC(=O)NC(=O)c2cc(Cl)cc(Cl)c2)nc(C(C)C)c1Sc1cc(Cl)cc(Cl)c1, the melting point was 124 to 125 °C. In the case of CCSC1=CCC2C3CCC4=CC(=O)C=CC4(C)C3C(O)CC12C (configuration not stated), the melting point was 216 to 218 °C. Work on CCCCCCCNC(=O)Nc1cccc(-c2ccc(C=C(OC)C(=O)O)cc2OCCCC)c1 yielded a melting point of 137 °C. For CN(Cc1ccc(NC(=O)C2=Cc3cc(-c4ccc5c(c4)CCCO5)ccc3S(=O)(=O)CC2)cc1)C1CCOCC1, the melting point was 245 to 249 °C. CCCC(=O)c1c[nH]c2c(OC)cccc2c1=O gave a melting point of 200 to 202 °C. O=C(NCCN1CCCC1)N1CCN(c2ccccc2)CC1 showed a melting point of 81.5 to 84 °C. Work on CC(C)c1ccc(N(Cc2ccc(N(C)C)cc2)C(=O)C2CCCc3ccccc32)cc1 (configuration not stated) yielded a melting point of 121 °C. Work on CN1CCC2(CC=C(c3cc4ccccc4s3)CC2)CC1 yielded a melting point of 89.7 to 91.2 °C. For CN1CCC(C2=C(C#N)C(c3cccc4nonc34)c3c[nH]nc3N2)CC1 (configuration not stated), the melting point was > 270 °C. O=C(CSc1ccc(Cl)cc1)c1ccccc1 showed a melting point of 65 to 66 °C. Work on O=S1(=O)N=CN(C2CCCCCCC2)c2cc(Cl)ccc21 yielded a melting point of 209 to 211 °C. In the case of O=C(NC1CCCCC1)N1C(=O)C2(CCCCC2)NC12CCCCC2, the melting point was 106 to 109 °C. In the case of CCc1nn(Cc2noc(O)n2)c(CC)c1Oc1cc(Cl)cc(Cl)c1, the melting point was 94 to 96 °C. COc1cc(C(O)CN2CCC(Cc3ccccc3)CC2)on1 (configuration not stated) gave a melting point of 134 to 137 °C. Molecule CNCCOc1cc(NC(=O)c2ccc(-c3ccc(-c4noc(C)n4)cc3C)cc2)ccc1OC has a melting point of 97 to 99 °C. In the case of Cn1c(C(F)(F)F)cc(=O)n(-c2cc(OCCNC=O)c(Cl)cc2F)c1=O, the melting point was 128 to 131 °C. Molecule O=C(CCl)Nc1ccc2[nH]ncc2c1 has a melting point of 175 to 178 °C. O=C(Nc1ccc(O)cc1)c1ccc(OC2CCCCO2)cc1 (configuration not stated) gave a melting point of 173 to 174 °C. For Cc1cc(Nc2ccnc(Nc3ccc(S(=O)(=O)N(C)C4CCN(Cc5csnn5)CC4)cc3)n2)ccc1F, the melting point was 168 °C. With Nc1nc2ccccc2c2c1nc(CCO)n2CC1(O)CCOCC1 the melting point was 237 to 238 °C. In the case of Cc1ccc(S(=O)(=O)N2CCC(C#N)(c3ccc(Cl)cc3)CC2)cc1, the melting point was 202 to 206 °C. Molecule CCC1(C)CCN(C(=O)CN(C(=O)CNC(=O)Nc2cccc(C)c2)c2ccccc2)CC1 has a melting point of 204 °C. For CCNP(=O)(Cc1ccc(NC(=O)C2=Cc3cc(C4CCCCC4)ccc3CC2)cc1)NCC, the melting point was 163 to 165 °C. Molecule O=Cc1ccc2c(c1I)OCO2 has a melting point of 124 to 126 °C. C=C1CCC2C3CC(=O)c4cc(OC(C)=O)ccc4C3CCC12C (configuration not stated) showed a melting point of 91 to 94 °C. Work on CC(=O)Nc1ccc(Cc2nc3c(c4c2[nH]c2ccccc24)C(=O)CC(C)(C)C3)cc1 yielded a melting point of 153 to 154 °C. Work on Cc1c(C(=O)NNC(C)(C)C)ccc2c1CCCO2 yielded a melting point of 146 to 148 °C. For Cn1c2c(c3ccc(-n4ccc(OCc5ccccc5)cc4=O)cc31)CNCCC2, the melting point was 178 to 181 °C. CN(Cc1cccc(-c2ccc(CC3SC(=O)NC3=O)cc2)c1)C(=O)c1ccc(-c2ccc(O)cc2)cc1 (configuration not stated) showed a melting point of 211 to 213 °C. In the case of CCCCOc1c2c(nc3c1cnn3CC)CCc1ccccc1C2=O, the melting point was 113 to 115 °C. For CCC/C=C/S(=O)(=O)NC(=O)c1ccc2nc(C)n(Cc3ccc(N(C)C(=O)OCC)cc3Cl)c2n1, the melting point was 165 to 166 °C. For O=C(O)C1CCc2[nH]c3ccc(Cl)cc3c2C1 (configuration not stated), the melting point was 181 to 183 °C. O=C(O)COc1ccc(SCc2cccc(OCc3ccc(C(F)(F)F)cc3)c2)c2c1CCCO2 showed a melting point of 113 to 115 °C. In the case of COC(=O)c1cc([N+](=O)[O-])ccc1ON=C(C)c1ccccc1, the melting point was 108 to 110 °C. In the case of CSCC[C@H](NC(=O)OC(C)(C)C)C(=O)NCC(=O)Oc1c(Cl)c(Cl)c(Cl)c(Cl)c1Cl, the melting point was 169 to 171 °C. Work on CN(C)NC(=O)N(C)C1c2ccccc2Oc2ccccc21 yielded a melting point of 120 to 123 °C. For NC(Cc1ccccc1)C(O)C(F)(F)F (configuration not stated), the melting point was 110 to 111 °C. CC(=O)OC[C@H]1OCC(=O)[C@@H](OC(C)=O)[C@@H]1OC(C)=O showed a melting point of 86 to 88 °C. N#Cc1ccc(-c2nc(CO)no2)cc1 showed a melting point of 138 to 140 °C. CS(=O)c1csc(C(=O)C2C(=O)N(C(N)=O)c3ccc(Cl)cc32)c1 (configuration not stated) gave a melting point of 204 to 206 °C. In the case of Cc1ncn(Cc2ccc(NC(=O)Nc3ccc(Oc4cc(Cl)ncn4)cc3)cc2C(F)(F)F)c1C, the melting point was 195 to 196 °C. Molecule O=C(NNc1ccccc1)c1ccccc1O has a melting point of 259 °C.
